In paper PMC6254011, “Design, Synthesis and Anti-HIV Integrase Evaluation of 4-Oxo-4H-quinolizine-3-carboxylic Acid Derivatives” (Molecules, 2009):

How the values were obtained:
[1] = target: T1, recombinant HIV integrase (Human immunodeficiency virus type 1 group M subtype B, UniProt P04585); assay: HIV integrase inhibition assay (microtiter plate, biotin donor DNA / digoxigenin target DNA, colorimetric); type: biochemical; settings: total inhibitory effect (3′ process reaction and strand transfer reaction), initial concentration 100 μg/mL, class symbol; for inhibition at 100 µg/mL: read-out: IC50 (μg/mL)
T1 construct: recombinant HIV integrase
Text: The target compounds 8, 9, 12, 14 were screened against purified HIV IN to determine any potential inhibitory activity. Thus, a synthesized 30 oligonucleotide and a 20 oligonucleotide were used as donor DNA and target DNA, respectively, which were purchased from Shanghai Sangon Biological Engineering Technology & Services Co. Ltd. The donor DNA was biotinylated at the 5′ end (5′ bio-DNA) and immobilized on streptavidin-coated 96-well microtiter plates. To the donor DNA streptavidin-coated 96-well microtiter plate were added test sample, 3' digoxygenin-labeled target DNA (3' dig-DNA) and recombinant HIV integrase and subjected to incubation in optimized condition.
The plate was further washed with phosphate-buffered saline (PBS) containing 0.1% Tween®-20 and anti-digoxigenin-peroxidase (POD, 100 µL) was added to each well. After incubation at 37°C for 60 min, the plate was washed with PBS containing 0.1% Tween®-20. The digoxygenin-labeled products were visualized by adding a POD substrate, tetramethylbenzidine (TMB). The colorimetric reaction was stopped by addition of 0.5 mol/L H2SO4 (100 µL), and the absorbance was measured at 450 nm on a microplate reader. The total inhibitory effect (including inhibiting 3′ process reaction and strand transfer reaction) were obtained by comparing the absorbance of drug group with control group (without test compound).

[2] = Mg2+ binding by UV-Vis titration in CH3CN; type: physicochemical
Protocol: Inspirited by this assumption, preliminary ion binding experiments were also carried out by UV-Vis spectroscopy, using compound 14a as an example. […] As the Mg^2+ concentration (as perchlorate salt) increased, the absorption intensity of the peak at 414 nm first decreased and then the wavelength shifted blue to around 402 nm. […] However, the Mg^2+ induced a blue shift of the absorption curve of compound 14a. Similar behaviors were also observed for other divalent metals, including Mn^2+, Co^2+, Cu^2+, Ca^2+ and Ni^2+ (not shown in Figure 3).
Figure 2 Changes of UV-vis spectra with 14a in CH3CN on addition of 0-16×10^-6 mol·L^-1 of [Mg^2+] at 25 °C. Conditions: [Mg^2+] =2 × 10^-3 M. [14a] = 2 × 10^-5 MBlack: 0×10^-6 mol·L^-1, blue: 2×10^-6 mol·L^-1, red: 4×10^-6 mol·L^-1, navy: 6×10^-6 mol·L^-1, brown: 8×10^-6 mol·L^-1, green: 10×10^-6 mol·L^-1, dark cyan: 12×10^-6 mol·L^-1, brass: 16×10^-6 mol.L^-1.
Figure 3 UV-Vis absorption spectra of free 14a and 14a in the presence of K^+, Na^+ or Mg^2+ ion in CH3CN solution. Conditions: [14a] = 2 × 10^-5 M; [Mg^2+] = [K^+] = [Na^+] = 2×10^-3 M; Black: 14a, blue: Na^+ complex, red: K^+ complex, navy: Mg^2+ complex.

[3] = Solubility in water (qualitative remark); type: physicochemical

Question: What does the source list for `O=C(O)c1cc(-c2nc3ccccc3s2)c2ccccn2c1=O` [compound 12, 1-benzothiazol-2-yl-4-oxo-4H-quinolizine-3-carboxylic acid]?
Answer: melting point: > 300 °C; inhibition at 100 µg/mL [1]: < 50%

Question: For “1-(3,4-Dimethoxystyrylcarboxylamino)-4-oxo-4H-quinolizine-3-carboxylic acid [9b]”, which “IC50 (μg/mL)” value [1] is on record?
Answer: -^2 (“-” indicates that the HIV-IN inhibitory effect was less than 50% at the initial concentration)

Question: With `O=C(O)c1cc(-c2nc3ccccc3[nH]2)c2ccccn2c1=O` [14a, 1-(1H-Benzimidazol-2-yl)-4-oxo-4H-quinolizine-3-carboxylic acid] as the compound, how does the “change of UV-Vis absorption in the presence of Na+ or K+” value ([2]; 100-fold equivalent amount of Na+ or K+) read?
Answer: no obvious change

Question: And the “change of UV-Vis absorption curve upon addition of Mg2+” value ([2]; [14a] = 2 × 10^-5 M)?
Answer: two-step shift of the absorption curve

Question: And the melting point?
Answer: > 300 °C

Question: And the inhibition at 100 µg/mL [1]?
Answer: < 50%

Question: What about the solubility in water [3] of the same compound?
Answer: low solubility

Question: With `O=C(O)c1cc(NS(=O)(=O)c2ccc(Cl)cc2)c2ccccn2c1=O` [8c, 1-p-Chlorophenylsulfonamido-4-oxo-4H-quinolizine-3-carboxylic acid] as the compound, how does the melting point read?
Answer: > 300 °C

Question: What about the inhibition at 100 µg/mL [1] of the same compound?
Answer: < 50%

Question: Which melting point does the source give for `Cc1ccc(S(=O)(=O)Nc2cc(C(=O)O)c(=O)n3ccccc23)cc1` [8b, 1-p-Methylphenylsulfonamido-4-oxo-4H-quinolizine-3-carboxylic acid] here?
Answer: > 300 °C

Question: And the inhibition at 100 µg/mL [1]?
Answer: < 50%

Question: For `O=C(O)c1cc(NS(=O)(=O)c2ccccc2)c2ccccn2c1=O` [8a, 1-Phenylsulfonamido-4-oxo-4H-quinolizine-3-carboxylic acid], which melting point is on record?
Answer: 245 to 247 °C

Question: And the inhibition at 100 µg/mL [1]?
Answer: < 50%

Question: What does the source list for `COc1ccc(S(=O)(=O)Nc2cc(C(=O)O)c(=O)n3ccccc23)cc1` [8d, 1-p-Methoxyphenylsulfonamido-4-oxo-4H-quinolizine-3-carboxylic acid]?
Answer: melting point: > 300 °C; inhibition at 100 µg/mL [1]: < 50%

Question: Which melting point does the source give for `COc1ccc2[nH]c(-c3cc(C(=O)O)c(=O)n4ccccc34)nc2c1` [14c, 1-(5(6)-Methoxy-1H-benzimidazol-2-yl)-4-oxo-4H-quinolizine-3-carboxylic acid] here?
Answer: > 300 °C

Question: What about the inhibition at 100 µg/mL [1] of the same compound?
Answer: < 50%

Question: Which results are given for `COc1cc(C(=O)Nc2cc(C(=O)O)c(=O)n3ccccc23)cc(OC)c1OC` [9a, 1-(3,4,5-Trimethoxyphenylcarbonylamino)-4-oxo-4H-quinolizine-3-carboxylic acid]?
Answer: melting point: 280 to 282 °C; inhibition at 100 µg/mL [1]: < 50%

Question: Which results are given for `O=C(O)c1cc(NS(=O)(=O)c2ccc([N+](=O)[O-])cc2)c2ccccn2c1=O` [8e, 1-p-Nitrophenylsulfonamido-4-oxo-4H-quinolizine-3-carboxylic acid]?
Answer: melting point: > 300 °C; inhibition at 100 µg/mL [1]: < 50%

Question: Which melting point does the source give for `O=C(O)c1cc(-c2nc3cc(Cl)ccc3[nH]2)c2ccccn2c1=O` [14b, 1-(5(6)-Chloro-1H-benzimidazol-2-yl)-4-oxo-4H-quinolizine-3-carboxylic acid] here?
Answer: > 300 °C

Question: What about the inhibition at 100 µg/mL [1] of the same compound?
Answer: < 50%
